{"source": "paper PMC9092651", "about": "“Improving Thermostability and Catalytic Activity of Glycosyltransferase From Panax ginseng by Semi-Rational Design for Rebaudioside D Synthesis” (Frontiers in Bioengineering and Biotechnology, 2022)", "target": "T1, EUGT11 (Oryza sativa, UniProt Q0DPB7)", "T1 construct": "gene Os03g0702000", "T1 sequence (Q0DPB7 1-462)": "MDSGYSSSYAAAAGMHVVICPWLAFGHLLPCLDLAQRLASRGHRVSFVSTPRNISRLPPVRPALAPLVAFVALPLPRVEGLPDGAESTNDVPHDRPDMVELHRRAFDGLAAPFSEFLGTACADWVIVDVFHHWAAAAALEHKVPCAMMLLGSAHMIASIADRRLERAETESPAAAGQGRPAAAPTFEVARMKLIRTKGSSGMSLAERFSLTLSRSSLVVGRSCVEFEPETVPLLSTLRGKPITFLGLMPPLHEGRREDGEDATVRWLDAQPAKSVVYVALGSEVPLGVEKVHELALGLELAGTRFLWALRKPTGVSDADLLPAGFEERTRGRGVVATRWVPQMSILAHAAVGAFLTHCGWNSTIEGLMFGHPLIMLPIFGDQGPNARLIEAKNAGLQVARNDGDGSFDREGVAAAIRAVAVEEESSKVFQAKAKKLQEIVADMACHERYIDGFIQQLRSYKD", "assay": "cell-free synthesised enzyme, HPLC product detection", "conditions": "2 mM UDP-glucose, 2 mM Reb A, 50 mM PBS pH 8.0, 35 °C, 12 h; positive control"}
{"smiles": "C=C1C[C@@]23CC[C@H]4[C@@](C)(CCC[C@@]4(C)C(=O)O[C@@H]4O[C@H](CO)[C@@H](O)[C@H](O)[C@H]4O)[C@@H]2CC[C@]1(O[C@@H]1O[C@H](CO)[C@@H](O)[C@H](O[C@@H]2O[C@H](CO)[C@@H](O)[C@H](O)[C@H]2O)[C@H]1O[C@@H]1O[C@H](CO)[C@@H](O)[C@H](O)[C@H]1O)C3", "note": "[Reb A]", "values": [{"measurement": "cell-free synthesised enzyme, HPLC product detection", "value": "the glycosylated product of Reb A catalyzed by EUGT11 had the same HPLC retention time"}]}
